The results in this text go back to PubChem BioAssay (NCI).

Some test systems named below: MDA-MB-435; HOP-92 NSCLC; OVCAR-5 ovarian; RPMI-8226 leukemia; HOP-62 NSCLC; SW-620 colon; MALME-3M melanoma; M14 melanoma; HS 578T breast; U251 CNS; NCI-H23 lung; MDA-MB-231 breast; ACHN renal; RXF 393 renal; CCRF-CEM leukemia; SNB-19 CNS.
Holding throughout (experiment): NCI tumour cell line growth inhibition, 48 h

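Cells were grown in 96-well plates and exposed to each compound for 48 hours at five concentrations; endpoints were interpolated linearly between bracketing concentrations, or set to the highest concentration if not reached. TGI: total growth inhibition.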

In the case of `CC1=NN(c2nc(N)nc(/C(C#N)=C/c3ccc([N+](=O)[O-])o3)n2)C(C)(C)C1`, the TGI is 6.38 µM in the experiment on MDA-MB-435; 3.4 µM in the experiment on HOP-92 NSCLC; 3.22 µM in the experiment with OVCAR-5 ovarian; above 22.8 µM in the experiment with RPMI-8226 leukemia; 31.3 µM with HOP-62 NSCLC; 3.71 µM in the experiment on SW-620 colon. For the same compound, the TGI is 4.23 µM in the experiment on MALME-3M melanoma; 2.75 µM with M14 melanoma; 71.4 µM with HS 578T breast; 11.3 µM with U251 CNS; 10.8 µM with NCI-H23 lung; 3.29 µM in the experiment on MDA-MB-231 breast. Besides, the TGI in the experiment on ACHN renal is 3.49 µM; in the experiment with RXF 393 renal, 3.21 µM; in the experiment with CCRF-CEM leukemia, above 100 µM; in the experiment on SNB-19 CNS, 29.7 µM.
As to `O=C1c2cccc3cccc(c23)C(=O)N1CCCNCCCCNCCCN1C(=O)c2cccc3cccc(c23)C1=O`, the TGI with MDA-MB-435 is 1.28 µM; in the experiment with HOP-92 NSCLC it was 1.59 µM; with OVCAR-5 ovarian, 2.44 µM; with RPMI-8226 leukemia, 0.179 µM; in the experiment on HOP-62 NSCLC, 2.66 µM; in the experiment on SW-620 colon it was 3.54 µM. Further, the TGI came out at 0.74 µM with MALME-3M melanoma; 1.94 µM in the experiment on M14 melanoma; 0.216 µM in the experiment on HS 578T breast; 1.22 µM with U251 CNS; 0.866 µM in the experiment with NCI-H23 lung; 1.09 µM in the experiment with MDA-MB-231 breast. In addition, the TGI with ACHN renal was found to be 6.47 µM; in the experiment on RXF 393 renal, 0.698 µM; in the experiment with CCRF-CEM leukemia, 0.205 µM; in the experiment on SNB-19 CNS, 4.35 µM.
For the compound `COc1cccc(/C(CC(O)(C(F)(F)F)C(F)(F)F)=N\N(C)C)c1`, the TGI in the experiment on MDA-MB-435, in the experiment on HOP-92 NSCLC, in the experiment on OVCAR-5 ovarian, with RPMI-8226 leukemia, with HOP-62 NSCLC and in the experiment on SW-620 colon was above 100 µM each time. Moreover, the TGI with MALME-3M melanoma, in the experiment with M14 melanoma, in the experiment with HS 578T breast, with U251 CNS, in the experiment on NCI-H23 lung and with MDA-MB-231 breast was above 100 µM throughout. In addition, the TGI in the experiment on ACHN renal, with RXF 393 renal, in the experiment with CCRF-CEM leukemia and in the experiment with SNB-19 CNS was above 100 µM in each case.
